Source: patent US20250152605A1, “METHOD AND DRUG FOR TREATING NEURONAL CEROID LIPOFUSCINOSIS” (priority 2021, published 2025)

Columns and labels:
p62 protein = p62 protein blotting with Baf-A1 (autophagic flux) in human neurons; assay type: cell-based
Description: Sample preparation: for adherent cultured cells, exemplified by cells cultured in a six-well cell plate, the cell medium was aspirated and the cells were washed once with dPBS. About 100 μL of RIPA lysate (50 mM Tris-HCl, pH 7.5, 150 mM NaCl, 0.25% Na-deoxycholate, 0.1% NP-40, 0.1% Triton X-100) containing protease inhibitors and phosphatase inhibitors was added to each well. The cell lysate was scraped off completely with a cell scraper and collected into 1.5 mL EP tubes. Lysis was continued for 30 minutes on ice. For animal tissue, the weight of the animal tissue was weighed, and RIPA lysate containing protease inhibitors and phosphatase inhibitors was added with five times the volume of the animal tissue. The tissue was grinded on ice with a tissue grinder until there is no obvious tissue mass, collected into 1.5 mL EP tubes, and placed on ice for further lysis for 30 min. […]

[1] = system: CLN3^Δex7/8 human neural stem cells; experiment: Transcriptome sequencing (RNA-seq) of human neural stem cells; assay type: cell-based; conditions: 6 μM, 6 hours
Description: In order to detect the effect of Compound G on treated cells, transcriptome sequencing was performed on neural stem cells treated with Compound G, with specific steps as follows: CLN3^Δex7/8 human neural stem cells were seeded into 2% Matrigel-coated 6-well cell plates to a cell density of 80%; fresh cell culture medium containing 6 μM Compound G or an equal volume of DMSO was added, and each treatment condition for two biological replicates; the neural stem cells were incubated in a 37° C. cell culture incubator for 6 hours; the cell culture medium was aspirated, following by washing once with dPBS, and then intracellular RNA was extracted by Qiagen RNeazy Mini Plus Kit; the extracted RNA was sent to ANNOROAD for RNA quality testing first. The purity of RNA was tested using a Nanophotometer spectrophotometer; the concentration of RNA was tested using a Qubit 3.0 Flurometer; the integrity of the RNA was tested using the Aligent 2100 RNA Nano 6000 Assay kit; 2 μg of RNA was taken from each qualified sample for library construction and quantified using Qubit 3.0 Flurometer.
After diluting the library-building samples to 1 ng/μL, the Aligent 2100 RNA Nano 6000 Assay kit and qPCR were used for quality detection; Illumina's Hiseq PE Cluster kit was used for clustering, and the Hiseq 2500 sequencing platform was used for paired-end sequencing to obtain 150 bp paired-end sequencing reads; FastQC software was used to evaluate the quality of the raw data obtained from sequencing, then TrimGalore was used to remove adapter sequences and low-quality sequences, and filtered data was obtained for subsequent analysis.
Comparation between filtered data and human reference genome hg38 was carried with HISAT2, resulting in Bam file, and the number of counts aligned to each gene was counted by FeatureCount, with gtf (GRCh38.92) file provided by Ensembl as annotation. Ensembl IDs were converted to gene names by BiomaRt R package. The genes with fold change>2 and corrected p<0.05 were screened as differential genes, through differential genes expression analysis with DESeq2 software.
In order to explore the mechanism of Compound G in human neural stem cells, transcriptome sequencing experiments were conducted on wild-type human neural stem cells, CLN3^Δex7/8 human neural stem cells and CLN3^Δex7/8 human neural stem cells after treated with Compound G for 6 hours, and differentially expressed genes were analyzed. […] CLN3^Δex7/8 human neural stem cells treated and untreated with Compound G were clustered together (FIG. 29(b, c)). […] With regard to the RNA sequencing results, the effects of Compound G on the transcription level of TFEB, autophagy-related genes and lysosomal genes were also analyzed.

With `C/C=C1\C(=O)C[C@H]2[C@@H]3CCC4=CC(=O)CC[C@]4(C)[C@H]3CC[C@]12C` [Compound G, (Z)-guggulsterone] the “increases of p62 protein after adding Baf-A1 (autophagic flux)” value (p62 protein; CLN3^Δex7/8 human neurons) was “higher increases of p62 protein”, the “intracellular protein level of p62” value (p62 protein; under the condition of adding Baf-A1) was “still significantly increase” and the “expression levels of NQO1, LPCAT1 and HLA-E” value [1] was “all increased”. For the same compound, the “gene expression profile (PCA analysis)” value [1] was “did not produce a significant impact”, the “number of differential genes (fold change >2 and corrected p<0.05)” value [1] was 3 and the “differential expression folds of NRF2 downstream genes other than NQO1” value ([1]; RNA sequencing) was “less than 2”. For the same compound, the “expressions of multiple NRF2 downstream genes” value ([1]; RNA sequencing) was “elevated” and the “transcription level of TFEB and most autophagy-related genes and lysosomal genes” value ([1]; RNA sequencing) was “no significant effects”.
